Assay results as given in ChEMBL document CHEMBL1201862, “PubChem BioAssay data set” (2004).
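Results reflect a 48-hour exposure of cells in 96-well plates to compound at five concentrations. Abbreviation: GI50, concentration required for 50% inhibition of growth.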 The source made the active and inactive calls. Rule as the data show it: active = GI50 up to about 1.1 µM and inactive = higher.

Key:
Test in all cases: NCI anticancer screen, dose series, 48 h
SK-MEL-2 = tested on: SK-MEL-2
SNB-78 = tested on: SNB-78
UACC-257 = tested on: UACC-257
Malme-3M = tested on: Malme-3M
K562 = tested on: K562
M19-MEL = tested on: M19-MEL
M14 = tested on: M14
UACC-62 = tested on: UACC-62
NCI-H23 = tested on: NCI-H23
MOLT-4 = tested on: MOLT-4
A498 = tested on: A498
KM-20L2 = tested on: KM-20L2
SF-539 = tested on: SF-539
HT-29 = tested on: HT-29
SK-MEL-28 = tested on: SK-MEL-28
NCI-H460 = tested on: NCI-H460
HCC 2998 = tested on: HCC 2998
U-251 = tested on: U-251
UO-31 = tested on: UO-31
HCT-116 = tested on: HCT-116
TK-10 = tested on: TK-10
OVCAR-5 = tested on: OVCAR-5
ACHN = tested on: ACHN
SN12C = tested on: SN12C
DMS-114 = tested on: DMS-114
KM12 = tested on: KM12
HOP-18 = tested on: HOP-18
COLO 205 = tested on: COLO 205
RXF 393 = tested on: RXF 393
786-0 = tested on: 786-0
HL-60 = tested on: HL-60
SW-620 = tested on: SW-620
OVCAR-3 = tested on: OVCAR-3
A549 = tested on: A549
IGROV-1 = tested on: IGROV-1
HOP-92 = tested on: HOP-92
EKVX = tested on: EKVX
HOP-62 = tested on: HOP-62
SK-MEL-5 = tested on: SK-MEL-5
DLD-1 = tested on: DLD-1
SNB-19 = tested on: SNB-19
HCT-15 = tested on: HCT-15
SF-268 = tested on: SF-268
OVCAR-4 = tested on: OVCAR-4
SF-295 = tested on: SF-295
CAKI-1 = tested on: CAKI-1
OVCAR-8 = tested on: OVCAR-8
LXFL 529 = tested on: LXFL 529
CCRF-CEM = tested on: CCRF-CEM
NCI-H522 = tested on: NCI-H522
SNB-75 = tested on: SNB-75
DMS-273 = tested on: DMS-273
SK-OV-3 = tested on: SK-OV-3
LOX IMVI = tested on: LOX IMVI
NCI-H226 = tested on: NCI-H226
RPMI-8226 = tested on: RPMI-8226

## NCCCNCc1c2ccccc2c(CNCCCN)c2ccccc12
SK-MEL-2
  GI50: 14.9 µM (inactive)
SNB-78
  GI50: 22.5 µM (inactive)
UACC-257
  GI50: 21.2 µM (inactive)
Malme-3M
  GI50: 11.7 µM (inactive)
K562
  GI50: 13.6 µM (inactive)
M19-MEL
  GI50: 14.7 µM (inactive)
M14
  GI50: > 10 µM (inactive)
UACC-62
  GI50: 36.1 µM (inactive)
NCI-H23
  GI50: 18.6 µM (inactive)
MOLT-4
  GI50: 12 µM (inactive)
A498
  GI50: 23.1 µM (inactive)
KM-20L2
  GI50: 17.9 µM (inactive)
SF-539
  GI50: 14.6 µM (inactive)
HT-29
  GI50: 18.2 µM (inactive)
SK-MEL-28
  GI50: > 10 µM (inactive)
NCI-H460
  GI50: 16.4 µM (inactive)
HCC 2998
  GI50: 17 µM (inactive)
U-251
  GI50: 33.4 µM (inactive)
UO-31
  GI50: 37.8 µM (inactive)
HCT-116
  GI50: 5.35 µM (inactive)
TK-10
  GI50: 32.5 µM (inactive)
OVCAR-5
  GI50: 21.3 µM (inactive)
ACHN
  GI50: 26.7 µM (inactive)
SN12C
  GI50: 3.66 µM (inactive)
DMS-114
  GI50: 14.3 µM (inactive)
KM12
  GI50: 19.2 µM (inactive)
HOP-18
  GI50: 25.1 µM (inactive)
COLO 205
  GI50: 7.66 µM (inactive)
RXF 393
  GI50: 15.2 µM (inactive)
786-0
  GI50: 5.9 µM (inactive)
HL-60
  GI50: 14.4 µM (inactive)
SW-620
  GI50: 6.84 µM (inactive)
OVCAR-3
  GI50: 28.3 µM (inactive)
A549
  GI50: 19.2 µM (inactive)
IGROV-1
  GI50: 44.2 µM (inactive)
HOP-92
  GI50: 11.5 µM (inactive)
EKVX
  GI50: 20.3 µM (inactive)
HOP-62
  GI50: 22.9 µM (inactive)
SK-MEL-5
  GI50: 27.1 µM (inactive)
DLD-1
  GI50: 34.6 µM (inactive)
SNB-19
  GI50: 33.2 µM (inactive)
HCT-15
  GI50: 22 µM
SF-268
  GI50: 5.12 µM (inactive)
OVCAR-4
  GI50: 11.1 µM (inactive)
SF-295
  GI50: 22.3 µM (inactive)
CAKI-1
  GI50: 30.5 µM (inactive)
OVCAR-8
  GI50: 14.6 µM (inactive)
LXFL 529
  GI50: 11.4 µM (inactive)
CCRF-CEM
  GI50: 16.9 µM (inactive)
NCI-H522
  GI50: 5.96 µM (inactive)
SNB-75
  GI50: 19.8 µM (inactive)

## N#C/C(=C\c1ccc(O)c(O)c1)c1c(C#N)c(N)nn1-c1ccccc1
SK-MEL-2
  GI50: 13 µM (inactive)
SNB-78
  GI50: 14.6 µM (inactive)
UACC-257
  GI50: 15.5 µM (inactive)
DMS-273
  GI50: 6.92 µM (inactive)
Malme-3M
  GI50: 4.95 µM (inactive)
K562
  GI50: 3.94 µM (inactive)
M19-MEL
  GI50: 7.4 µM (inactive)
M14
  GI50: 9.29 µM (inactive)
UACC-62
  GI50: 3.81 µM (inactive)
SK-OV-3
  GI50: 12.9 µM (inactive)
NCI-H23
  GI50: 7.43 µM (inactive)
LOX IMVI
  GI50: 5.05 µM (inactive)
A498
  GI50: 2.76 µM (inactive)
KM-20L2
  GI50: 38.1 µM (inactive)
SF-539
  GI50: 6.64 µM (inactive)
HT-29
  GI50: 22 µM (inactive)
SK-MEL-28
  GI50: 20 µM (inactive)
NCI-H460
  GI50: 10.8 µM (inactive)
HCC 2998
  GI50: 9.66 µM (inactive)
U-251
  GI50: 5.36 µM (inactive)
UO-31
  GI50: 6.47 µM (inactive)
HCT-116
  GI50: 5.48 µM (inactive)
TK-10
  GI50: 21.8 µM (inactive)
OVCAR-5
  GI50: 33 µM (inactive)
ACHN
  GI50: 8 µM (inactive)
SN12C
  GI50: 10.3 µM (inactive)
KM12
  GI50: 15.6 µM (inactive)
HOP-18
  GI50: 1.04 µM (active)
COLO 205
  GI50: 24.1 µM (inactive)
786-0
  GI50: 7.67 µM (inactive)
HL-60
  GI50: 7.85 µM (inactive)
SW-620
  GI50: 12.8 µM (inactive)
OVCAR-3
  GI50: 2.04 µM (inactive)
A549
  GI50: 10.1 µM (inactive)
IGROV-1
  GI50: 4.17 µM (inactive)
HOP-92
  GI50: 8.71 µM (inactive)
EKVX
  GI50: 7.45 µM (inactive)
HOP-62
  GI50: 10 µM (inactive)
SK-MEL-5
  GI50: 6.58 µM (inactive)
DLD-1
  GI50: 18.5 µM (inactive)
SNB-19
  GI50: 7.19 µM (inactive)
HCT-15
  GI50: 11.7 µM
SF-268
  GI50: 7.38 µM (inactive)
OVCAR-4
  GI50: 17.2 µM (inactive)
SF-295
  GI50: 15.7 µM (inactive)
CAKI-1
  GI50: 1.59 µM (inactive)
OVCAR-8
  GI50: 5.82 µM (inactive)
LXFL 529
  GI50: 8.65 µM (inactive)
CCRF-CEM
  GI50: 4.11 µM (inactive)
NCI-H522
  GI50: 3.32 µM (inactive)
SNB-75
  GI50: 13.3 µM (inactive)

## CCCCCCCCC(=O)N(C)C1C2CN3CCC(O2)C13 (stereo unspecified)
NCI-H226
  GI50: > 100 µM (inactive)
SK-MEL-2
  GI50: > 100 µM (inactive)
SNB-78
  GI50: > 100 µM (inactive)
UACC-257
  GI50: > 100 µM (inactive)
DMS-273
  GI50: > 100 µM (inactive)
Malme-3M
  GI50: > 100 µM (inactive)
K562
  GI50: > 100 µM (inactive)
M19-MEL
  GI50: > 100 µM (inactive)
M14
  GI50: > 100 µM (inactive)
UACC-62
  GI50: > 100 µM (inactive)
SK-OV-3
  GI50: > 100 µM (inactive)
NCI-H23
  GI50: > 100 µM (inactive)
MOLT-4
  GI50: > 100 µM (inactive)
LOX IMVI
  GI50: > 100 µM (inactive)
A498
  GI50: > 100 µM (inactive)
KM-20L2
  GI50: > 100 µM (inactive)
SF-539
  GI50: > 100 µM (inactive)
HT-29
  GI50: > 100 µM (inactive)
SK-MEL-28
  GI50: > 100 µM (inactive)
NCI-H460
  GI50: > 100 µM (inactive)
HCC 2998
  GI50: > 100 µM (inactive)
U-251
  GI50: > 100 µM (inactive)
UO-31
  GI50: > 100 µM (inactive)
HCT-116
  GI50: > 100 µM (inactive)
TK-10
  GI50: > 100 µM (inactive)
OVCAR-5
  GI50: > 100 µM (inactive)
ACHN
  GI50: > 100 µM (inactive)
SN12C
  GI50: > 100 µM (inactive)
DMS-114
  GI50: > 100 µM (inactive)
KM12
  GI50: > 100 µM (inactive)
HOP-18
  GI50: > 100 µM (inactive)
COLO 205
  GI50: > 100 µM (inactive)
RXF 393
  GI50: > 100 µM (inactive)
786-0
  GI50: > 100 µM (inactive)
HL-60
  GI50: > 100 µM (inactive)
SW-620
  GI50: > 100 µM (inactive)
RPMI-8226
  GI50: > 100 µM (inactive)
OVCAR-3
  GI50: > 100 µM (inactive)
A549
  GI50: > 100 µM (inactive)
IGROV-1
  GI50: > 100 µM (inactive)
EKVX
  GI50: > 100 µM (inactive)
HOP-62
  GI50: > 100 µM (inactive)
SK-MEL-5
  GI50: > 100 µM (inactive)
DLD-1
  GI50: > 100 µM (inactive)
SNB-19
  GI50: > 100 µM (inactive)
HCT-15
  GI50: > 100 µM
SF-268
  GI50: > 100 µM (inactive)
OVCAR-4
  GI50: > 100 µM (inactive)
SF-295
  GI50: > 100 µM (inactive)
CAKI-1
  GI50: 48.9 µM (inactive)
LXFL 529
  GI50: > 100 µM (inactive)
CCRF-CEM
  GI50: > 100 µM (inactive)
NCI-H522
  GI50: > 100 µM (inactive)
SNB-75
  GI50: 75.7 µM (inactive)
